Experimental data from PubChem BioAssay AID1982 (Sanford-Burnham Center for Chemical Genomics, 2009).
The source made the active and inactive calls. The rule behind the calls is not given here.

Legend:
Test in all cases: kinase panel binding selectivity, selectivity assay, biochemical, KINOMEscan (AID 1982)
ACVR2A = settings: KINOMEscan 353-kinase binding panel, qPCR, at 10 µM, hits give low values
[1] = target: ALK tyrosine kinase receptor (Homo sapiens) (UniProt Q9UM73); settings: KINOMEscan 353-kinase binding panel, qPCR, at 10 µM, hits give low values
CDK3 = settings: KINOMEscan 353-kinase binding panel, qPCR, at 10 µM, hits give low values
HIPK1 = settings: KINOMEscan 353-kinase binding panel, qPCR, at 10 µM, hits give low values
MLCK = settings: KINOMEscan 353-kinase binding panel, qPCR, at 10 µM, hits give low values
[2] = target: Serine/threonine-protein kinase D2 (Homo sapiens) (UniProt Q9BZL6); settings: KINOMEscan 353-kinase binding panel, qPCR; PRKD2; at 10 µM; hits give low values
[3] = target: Serine/threonine-protein kinase D3 (Homo sapiens) (UniProt O94806); settings: KINOMEscan 353-kinase binding panel, qPCR; PRKD3; at 10 µM; hits give low values
[4] = target: Serine/threonine-protein kinase pim-3 (Homo sapiens) (UniProt Q86V86); settings: KINOMEscan 353-kinase binding panel, qPCR; PIM3; at 10 µM; hits give low values
[5] = target: Tyrosine-protein kinase Yes (Homo sapiens) (UniProt P07947); settings: KINOMEscan 353-kinase binding panel, qPCR, at 10 µM, hits give low values
ZAP70 = settings: KINOMEscan 353-kinase binding panel, qPCR, at 10 µM, hits give low values
p38-beta = settings: KINOMEscan 353-kinase binding panel, qPCR, at 10 µM, hits give low values
p38-delta = settings: KINOMEscan 353-kinase binding panel, qPCR, at 10 µM, hits give low values

Measured: percent of control binding

Sequence of Serine/threonine-protein kinase D3 (Homo sapiens) (O94806 whole entry, looked up): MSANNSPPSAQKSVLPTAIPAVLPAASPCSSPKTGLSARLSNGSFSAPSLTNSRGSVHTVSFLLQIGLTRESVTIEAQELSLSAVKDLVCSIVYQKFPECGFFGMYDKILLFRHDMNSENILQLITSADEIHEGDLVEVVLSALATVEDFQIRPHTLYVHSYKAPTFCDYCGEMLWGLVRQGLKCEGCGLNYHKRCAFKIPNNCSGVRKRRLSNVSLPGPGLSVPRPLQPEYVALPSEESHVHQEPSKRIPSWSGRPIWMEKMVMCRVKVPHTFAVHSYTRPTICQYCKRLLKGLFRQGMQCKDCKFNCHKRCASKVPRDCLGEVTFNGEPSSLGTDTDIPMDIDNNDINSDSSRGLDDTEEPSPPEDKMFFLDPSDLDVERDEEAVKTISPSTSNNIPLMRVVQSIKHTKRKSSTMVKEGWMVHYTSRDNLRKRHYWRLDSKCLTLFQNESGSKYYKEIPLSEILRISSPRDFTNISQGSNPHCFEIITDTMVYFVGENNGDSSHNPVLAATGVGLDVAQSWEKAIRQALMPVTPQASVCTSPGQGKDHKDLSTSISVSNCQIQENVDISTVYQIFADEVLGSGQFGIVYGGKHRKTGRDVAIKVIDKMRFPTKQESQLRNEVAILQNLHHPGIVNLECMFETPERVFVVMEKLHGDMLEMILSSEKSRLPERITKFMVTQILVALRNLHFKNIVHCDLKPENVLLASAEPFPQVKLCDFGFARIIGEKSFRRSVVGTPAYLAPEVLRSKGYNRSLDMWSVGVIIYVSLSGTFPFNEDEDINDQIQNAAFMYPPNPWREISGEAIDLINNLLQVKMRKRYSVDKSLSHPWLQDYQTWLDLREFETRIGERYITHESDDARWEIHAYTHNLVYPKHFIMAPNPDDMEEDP
Sequence of Serine/threonine-protein kinase D2 (Homo sapiens) (Q9BZL6 whole entry, looked up): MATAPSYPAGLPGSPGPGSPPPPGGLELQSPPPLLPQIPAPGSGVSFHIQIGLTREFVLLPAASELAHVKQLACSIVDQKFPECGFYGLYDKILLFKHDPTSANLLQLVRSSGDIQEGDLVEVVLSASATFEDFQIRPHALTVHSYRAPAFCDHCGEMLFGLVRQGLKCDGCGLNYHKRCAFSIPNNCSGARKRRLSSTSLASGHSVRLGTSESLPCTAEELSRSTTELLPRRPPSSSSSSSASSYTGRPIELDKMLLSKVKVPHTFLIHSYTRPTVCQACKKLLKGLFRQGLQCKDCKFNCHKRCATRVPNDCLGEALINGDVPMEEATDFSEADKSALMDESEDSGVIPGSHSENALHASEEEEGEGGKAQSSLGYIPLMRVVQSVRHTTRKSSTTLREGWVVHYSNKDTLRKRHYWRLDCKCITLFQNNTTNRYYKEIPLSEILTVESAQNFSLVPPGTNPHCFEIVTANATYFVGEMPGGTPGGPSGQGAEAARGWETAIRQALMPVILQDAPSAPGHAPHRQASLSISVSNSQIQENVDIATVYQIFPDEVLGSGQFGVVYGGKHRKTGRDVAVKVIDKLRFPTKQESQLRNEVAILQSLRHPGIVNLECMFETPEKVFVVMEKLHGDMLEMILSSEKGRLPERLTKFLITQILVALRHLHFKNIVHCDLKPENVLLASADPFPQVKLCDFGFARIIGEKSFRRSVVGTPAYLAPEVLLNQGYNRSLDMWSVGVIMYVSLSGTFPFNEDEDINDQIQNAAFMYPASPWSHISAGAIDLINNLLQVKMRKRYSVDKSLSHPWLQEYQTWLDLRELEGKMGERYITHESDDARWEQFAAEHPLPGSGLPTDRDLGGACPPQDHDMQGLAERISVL
Sequence of ALK tyrosine kinase receptor (Homo sapiens) (Q9UM73 whole entry, looked up): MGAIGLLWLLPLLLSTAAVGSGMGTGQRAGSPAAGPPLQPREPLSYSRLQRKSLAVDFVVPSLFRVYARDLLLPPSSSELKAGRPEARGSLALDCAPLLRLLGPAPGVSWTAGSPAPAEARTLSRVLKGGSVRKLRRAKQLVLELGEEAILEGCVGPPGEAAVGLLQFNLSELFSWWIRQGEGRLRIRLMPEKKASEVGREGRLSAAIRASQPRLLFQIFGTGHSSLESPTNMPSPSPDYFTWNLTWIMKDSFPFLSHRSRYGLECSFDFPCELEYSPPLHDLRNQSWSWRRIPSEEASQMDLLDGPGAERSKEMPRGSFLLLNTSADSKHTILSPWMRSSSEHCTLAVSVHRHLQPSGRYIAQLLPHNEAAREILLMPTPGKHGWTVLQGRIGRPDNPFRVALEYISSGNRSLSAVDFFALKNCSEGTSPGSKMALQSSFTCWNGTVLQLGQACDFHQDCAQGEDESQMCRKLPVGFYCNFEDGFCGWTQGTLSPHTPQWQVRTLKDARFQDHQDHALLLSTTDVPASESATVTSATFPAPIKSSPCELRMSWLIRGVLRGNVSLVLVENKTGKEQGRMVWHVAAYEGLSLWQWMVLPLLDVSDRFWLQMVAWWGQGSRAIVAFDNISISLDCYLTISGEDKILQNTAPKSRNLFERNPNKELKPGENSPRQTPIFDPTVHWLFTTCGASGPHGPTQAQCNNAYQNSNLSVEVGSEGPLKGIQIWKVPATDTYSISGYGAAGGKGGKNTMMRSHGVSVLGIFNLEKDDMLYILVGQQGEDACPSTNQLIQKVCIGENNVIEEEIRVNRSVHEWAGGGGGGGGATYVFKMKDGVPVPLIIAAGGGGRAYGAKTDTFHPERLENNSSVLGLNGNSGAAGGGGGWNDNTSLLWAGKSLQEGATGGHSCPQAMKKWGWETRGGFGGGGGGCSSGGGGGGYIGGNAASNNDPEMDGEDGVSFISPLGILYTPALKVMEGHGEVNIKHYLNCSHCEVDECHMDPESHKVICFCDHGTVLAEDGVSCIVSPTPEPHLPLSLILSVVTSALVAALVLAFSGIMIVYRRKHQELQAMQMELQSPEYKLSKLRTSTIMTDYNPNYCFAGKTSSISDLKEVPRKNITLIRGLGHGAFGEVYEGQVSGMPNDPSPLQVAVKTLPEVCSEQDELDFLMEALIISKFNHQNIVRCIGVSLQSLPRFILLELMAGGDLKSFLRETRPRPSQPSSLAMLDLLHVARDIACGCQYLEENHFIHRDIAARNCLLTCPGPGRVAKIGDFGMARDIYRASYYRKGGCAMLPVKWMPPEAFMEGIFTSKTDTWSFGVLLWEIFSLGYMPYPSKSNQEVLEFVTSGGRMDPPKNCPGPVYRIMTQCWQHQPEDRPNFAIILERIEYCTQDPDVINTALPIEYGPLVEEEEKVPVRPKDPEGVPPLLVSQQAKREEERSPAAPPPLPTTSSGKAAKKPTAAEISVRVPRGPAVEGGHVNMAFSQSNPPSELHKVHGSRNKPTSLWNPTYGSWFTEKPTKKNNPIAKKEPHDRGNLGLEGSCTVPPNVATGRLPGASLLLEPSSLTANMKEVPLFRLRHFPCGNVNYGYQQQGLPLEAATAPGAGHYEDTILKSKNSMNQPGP
Sequence of Tyrosine-protein kinase Yes (Homo sapiens) (P07947 whole entry, looked up): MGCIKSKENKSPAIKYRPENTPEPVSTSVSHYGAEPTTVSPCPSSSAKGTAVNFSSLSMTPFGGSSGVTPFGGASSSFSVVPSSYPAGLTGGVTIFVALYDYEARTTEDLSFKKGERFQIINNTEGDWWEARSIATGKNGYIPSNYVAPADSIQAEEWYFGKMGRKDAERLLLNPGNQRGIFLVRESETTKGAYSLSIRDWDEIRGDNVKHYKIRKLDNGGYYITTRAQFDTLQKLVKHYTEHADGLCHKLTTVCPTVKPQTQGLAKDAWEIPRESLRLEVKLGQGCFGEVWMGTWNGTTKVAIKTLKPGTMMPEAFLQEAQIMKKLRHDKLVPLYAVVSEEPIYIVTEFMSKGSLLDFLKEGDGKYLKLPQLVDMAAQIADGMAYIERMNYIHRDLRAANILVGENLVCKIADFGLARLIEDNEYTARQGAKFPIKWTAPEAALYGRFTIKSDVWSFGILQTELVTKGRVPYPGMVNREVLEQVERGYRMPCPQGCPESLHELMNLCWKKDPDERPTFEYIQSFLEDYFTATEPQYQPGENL

Cc1cc2nc(NCCCO)n(CC(=O)c3cc(C(C)(C)C)c(O)c(C(C)(C)C)c3)c2cc1C
inactive: ACVR2A 88% | [1] 100% | CDK3 82% | HIPK1 100% | MLCK 91% | [2] 91% | [3] 100% | [4] 100% | [5] 100% | ZAP70 70% | p38-beta 100% | p38-delta 100%
